Data reported in patent US9029377B2, “Platelet-activating factor receptor antagonists” (Merck Sharp & Dohme Corp., priority 2009, dated 2015).

Each compound was assayed against PAFR (Homo sapiens, UniProt P25105) (assay: PAF Binding Assay (PAFR binding)).
Chain of PAFR (P25105 whole entry): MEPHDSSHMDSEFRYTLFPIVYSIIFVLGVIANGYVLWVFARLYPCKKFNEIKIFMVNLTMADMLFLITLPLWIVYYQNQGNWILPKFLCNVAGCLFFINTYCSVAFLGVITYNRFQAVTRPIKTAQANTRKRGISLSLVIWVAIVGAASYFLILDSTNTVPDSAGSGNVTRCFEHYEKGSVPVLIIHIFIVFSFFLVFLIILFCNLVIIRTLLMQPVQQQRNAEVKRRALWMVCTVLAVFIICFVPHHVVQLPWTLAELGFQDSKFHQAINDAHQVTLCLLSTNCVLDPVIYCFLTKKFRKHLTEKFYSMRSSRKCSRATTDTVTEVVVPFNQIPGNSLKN

SMILES | IC50 [µM]
O=S(=O)(N[C@H]1CCC[C@@H](n2cnnc2)C1)c1ccc(-c2ccc(OC(F)(F)F)cc2)cc1OC(F)(F)F [Compound 2Bal, N-[(1S,3R)-3-(4H-1,2,4-triazol-4-yl)cyclohexyl]-3,4′-bis(trifluoromethoxy)biphenyl-4-sulfonamide] | 0.015
Cc1nncn1[C@@H]1CCC[C@H](NS(=O)(=O)c2ccc(-c3ccc(OC(F)(F)F)cc3)cc2OC(F)(F)F)C1 [Compound 2Bbd, N-[(1S,3R)-3-(3-methyl-4H-1,2,4-triazol-4-yl)cyclohexyl]-3,4′-bis(trifluoromethoxy)biphenyl-4-sulfonamide] | 0.0062
Cc1nncn1[C@@H]1CCC[C@H](NS(=O)(=O)c2ccc(-c3ccc(OCC(F)(F)F)nc3)cc2OC(F)(F)F)C1 [Compound 2Bbe, N-[(1S,3R)-3-(3-methyl-4H-1,2,4-triazol-4-yl)cyclohexyl]-4-[6-(2,2,2-trifluoroethoxy)pyridin-3-yl]-2-(trifluoromethoxy)benzenesulfonamide] | 0.002
Cc1nncn1[C@@H]1CCC[C@H](NS(=O)(=O)c2ccc(-c3noc(C4CCC4)n3)cc2OC(F)(F)F)C1 [Compound 2Bbg, 4-(5-cyclobutyl-1,2,4-oxadiazol-3-yl)-N-[(1S,3R)-3-(3-methyl-4H-1,2,4-triazol-4-yl)cyclohexyl]-2-(trifluoromethoxy)benzenesulfonamide] | 0.0015
Cc1nncn1[C@@H]1CCC[C@H](NS(=O)(=O)c2ccc(-c3noc(C4CCCC4)n3)cc2OC(F)(F)F)C1 [Compound 2Bbh, 4-(5-cyclopentyl-1,2,4-oxadiazol-3-yl)-N-[(1S,3R)-3-(3-methyl-4H-1,2,4-triazol-4-yl)cyclohexyl]-2-(trifluoromethoxy)benzenesulfonamide] | 0.0038
CCc1cc(-c2ccc(OCC(F)(F)F)nc2)ccc1S(=O)(=O)N[C@@H]1C[C@H](n2cnnc2)CC(F)(F)C1 [Compound 2Cak, N-[(1R,5S)-3,3-difluoro-5-(4H-1,2,4-triazol-4-yl)cyclohexyl]-2-ethyl-4-[6-(2,2,2-trifluoroethoxy)pyridin-3-yl]benzenesulfonamide] | 0.0031
CCc1cc(-c2ccc(OC(F)(F)F)cc2)ccc1S(=O)(=O)N[C@@H]1C[C@H](n2cnnc2)CC(F)(F)C1 [Compound 2Cal, N-[(1R,5S)-3,3-difluoro-5-(4H-1,2,4-triazol-4-yl)cyclohexyl]-3-ethyl-4′-(trifluoromethoxy)biphenyl-4-sulfonamide] | 0.011
CCc1cc(-c2noc(C3CC3)n2)ccc1S(=O)(=O)N[C@@H]1C[C@H](n2cnnc2C)CC(F)(F)C1 [Compound 2Cbb, 4-(5-cyclopropyl-1,2,4-oxadiazol-3-yl)-N-[(1R,5S)-3,3-difluoro-5-(3-methyl-4H-1,2,4-triazol-4-yl)cyclohexyl]-2-ethylbenzenesulfonamide] | 0.0008
CCc1cc(-c2ccc(OC(F)(F)F)cc2)ccc1S(=O)(=O)N[C@@H]1C[C@H](n2cnnc2C)CC(F)(F)C1 [Compound 2Cbd, N-[(1R,5S)-3,3-difluoro-5-(3-methyl-4H-1,2,4-triazol-4-yl)cyclohexyl]-3-ethyl-4′-(trifluoromethoxy)biphenyl-4-sulfonamide] | 0.0009
CCc1cc(-c2ccc(OCC(F)(F)F)nc2)ccc1S(=O)(=O)N[C@@H]1C[C@H](n2cnnc2C)CC(F)(F)C1 [Compound 2Cbe, N-[(1R,5S)-3,3-difluoro-5-(3-methyl-4H-1,2,4-triazol-4-yl)cyclohexyl]-2-ethyl-4-[6-(2,2,2-trifluoroethoxy)pyridin-3-yl]benzenesulfonamide] | 0.0002

Continued, values first:

IC50 [µM] | SMILES
0.095 | CCc1cc(-c2ccncc2)ccc1S(=O)(=O)N[C@H]1CCC[C@@H](n2cnnc2)C1 [Compound 2Ak, 2-ethyl-4-pyridin-4-yl-N-[(1S,3R)-3-(4H-1,2,4-triazol-4-yl)cyclohexyl]benzenesulfonamide]
0.022 | CCc1cc(-c2ccccc2F)ccc1S(=O)(=O)N[C@H]1CCC[C@@H](n2cnnc2)C1 [Compound 2Al, 3-ethyl-2′-fluoro-N-[(1S,3R)-3-(4H-1,2,4-triazol-4-yl)cyclohexyl]benzenesulfonamide]
0.017 | CCc1cc(-c2ccc(F)cc2)ccc1S(=O)(=O)N[C@H]1CCC[C@@H](n2cnnc2)C1 [Compound 2An, 3-ethyl-4′-fluoro-N-[(1S,3R)-3-(4H-1,2,4-triazol-4-yl)cyclohexyl]benzenesulfonamide]
0.159 | CCc1cc(-c2cccnc2)ccc1S(=O)(=O)N[C@H]1CCC[C@@H](n2cnnc2)C1 [Compound 2Ao, 2-ethyl-4-pyridin-3-yl-N-[(1S,3R)-3-(4H-1,2,4-triazol-4-yl)cyclohexyl]benzenesulfonamide]
0.027 | CCc1cc(-c2ccc(OC)cc2)ccc1S(=O)(=O)N[C@H]1CCC[C@@H](n2cnnc2)C1 [Compound 2Ap, 3-ethyl-4′-methoxy-N-[(1S,3R)-3-(4H-1,2,4-triazol-4-yl)cyclohexyl]biphenyl-4-sulfonamide]
0.027 | CCc1cc(-c2cccnc2OC)ccc1S(=O)(=O)N[C@H]1CCC[C@@H](n2cnnc2)C1 [Compound 2Aq, 2-ethyl-4-(2-methoxypyridin-3-yl)-N-[(1S,3R)-3-(4H-1,2,4-triazol-4-yl)cyclohexyl]benzenesulfonamide]
0.027 | CCc1cc(-c2cccc(OC)c2)ccc1S(=O)(=O)N[C@H]1CCC[C@@H](n2cnnc2)C1 [Compound 2Ar, 3-ethyl-3′-methoxy-N-[(1S,3R)-3-(4H-1,2,4-triazol-4-yl)cyclohexyl]biphenyl-4-sulfonamide]
0.016 | CCc1cc(-c2ccccc2OC)ccc1S(=O)(=O)N[C@H]1CCC[C@@H](n2cnnc2)C1 [Compound 2As, 3-ethyl-2′-methoxy-N-[(1S,3R)-3-(4H-1,2,4-triazol-4-yl)cyclohexyl]biphenyl-4-sulfonamide]
0.039 | CCc1cc(-c2ccc(OC)c(F)c2)ccc1S(=O)(=O)N[C@H]1CCC[C@@H](n2cnnc2)C1 [Compound 2At, 3-ethyl-3′-fluoro-4′-methoxy-N-[(1S,3R)-3-(4H-1,2,4-triazol-4-yl)cyclohexyl]biphenyl-4-sulfonamide]
0.019 | CCc1cc(-c2cc(OC)cc(OC)c2)ccc1S(=O)(=O)N[C@H]1CCC[C@@H](n2cnnc2)C1 [Compound 2Au, 3-ethyl-3′,5′-dimethoxy-N-[(1S,3R)-3-(4H-1,2,4-triazol-4-yl)cyclohexyl]biphenyl-4-sulfonamide]
0.016 | CCc1cc(-c2ccc(F)cc2F)ccc1S(=O)(=O)N[C@H]1CCC[C@@H](n2cnnc2)C1 [Compound 2Av, 3-ethyl-2′,4′-difluoro-N-[(1S,3R)-3-(4H-1,2,4-triazol-4-yl)cyclohexyl]biphenyl-4-sulfonamide]
0.024 | CCc1cc(-c2ccc(F)c(F)c2)ccc1S(=O)(=O)N[C@H]1CCC[C@@H](n2cnnc2)C1 [Compound 2Aw, 3-ethyl-3′,4′-difluoro-N-[(1S,3R)-3-(4H-1,2,4-triazol-4-yl)cyclohexyl]biphenyl-4-sulfonamide]
0.038 | CCc1cc(-c2ccc3c(c2)OCO3)ccc1S(=O)(=O)N[C@H]1CCC[C@@H](n2cnnc2)C1 [Compound 2Ax, 4-(1,3-benzodioxol-5-yl)-2-ethyl-N-[(1S,3R)-3-(4H-1,2,4-triazol-4-yl)cyclohexyl]benzenesulfonamide]
0.0025 | CCc1cc(-c2ccc(OC(F)F)cc2)ccc1S(=O)(=O)N[C@H]1CCC[C@@H](n2cnnc2)C1 [Compound 2Ay, 4′-(difluoromethoxy)-3-ethyl-N-[(1S,3R)-3-(4H-1,2,4-triazol-4-yl)cyclohexyl]biphenyl-4-sulfonamide]
0.048 | CCc1cc(-c2c(C)noc2C)ccc1S(=O)(=O)N[C@H]1CCC[C@@H](n2cnnc2)C1 [Compound 2Az, 4-(3,5-dimethylisoxazol-4-yl)-2-ethyl-N-[(1S,3R)-3-(4H-1,2,4-triazol-4-yl)cyclohexyl]benzenesulfonamide]
0.0043 | O=S(=O)(N[C@H]1CCC[C@@H](n2cnnc2C2CC2)C1)c1ccc(-c2noc(C3CC3)n2)cc1OC(F)(F)F [Compound 2Bb, 4-(5-cyclopropyl-1,2,4-oxadiazol-3-yl)-N-[(1S,3R)-3-(3-cycloropyl-4H-1,2,4-triazol-4-yl)cyclohexyl]-2-(trifluoromethoxy)benzenesulfonamide]
0.0025 | O=S(=O)(N[C@H]1CCC[C@@H](n2cnnc2C2CC2)C1)c1ccc(-c2noc(C3CCC3)n2)cc1OC(F)(F)F [Compound 2Bc, 4-(5-cyclobutyl-1,2,4-oxadiazol-3-yl)-N-[(1S,3R)-3-(3-cycloropyl-4H-1,2,4-triazol-4-yl)cyclohexyl]-2-(trifluoromethoxy)benzenesulfonamide]
0.0063 | O=S(=O)(N[C@H]1CCC[C@@H](n2cnnc2C2CC2)C1)c1ccc(-c2noc(C3CC(F)(F)C3)n2)cc1OC(F)(F)F [Compound 2Bd, N-[(1S,3R)-3-(3-cycloropyl-4H-1,2,4-triazol-4-yl)cyclohexyl]-4-[5-(3,3-difluorocyclobutyl)-1,2,4-oxadiazol-3-yl]-2-(trifluoromethoxy)benzenesulfonamide]
0.0058 | O=S(=O)(N[C@H]1CCC[C@@H](n2cnnc2)C1)c1ccc(-c2ccc(OC(F)(F)F)cc2)c(F)c1 [Compound 2Ea, 2-fluoro-N-[(1S,3R)-3-(4H-1,2,4-triazol-4-yl)cyclohexyl]-4′-(trifluoromethoxy)biphenyl-4-sulfonamide]
0.0007 | O=S(=O)(N[C@H]1CCC[C@@H](n2cnnc2)C1)c1ccc(-c2ccc(OCC(F)(F)F)cc2)c(F)c1 [Compound 2Eb, 2-fluoro-N-[(1S,3R)-3-(4H-1,2,4-triazol-4-yl)cyclohexyl]-4′-(2,2,2-trifluoroethoxy)biphenyl-4-sulfonamide]
0.0026 | O=S(=O)(N[C@H]1CCC[C@@H](n2cnnc2)C1)c1ccc(-c2ccc(OC(F)F)cc2)c(F)c1 [Compound 2Ec, 4′-(difluoromethoxy)-2-fluoro-N-[(1S,3R)-3-(4H-1,2,4-triazol-4-yl)cyclohexyl]biphenyl-4-sulfonamide]
0.015 | CC(C)Oc1ccc(-c2ccc(S(=O)(=O)N[C@H]3CCC[C@@H](n4cnnc4)C3)cc2F)cc1 [Compound 2Ed, 2-fluoro-4′-isopropoxy-N-[(1S,3R)-3-(4H-1,2,4-triazol-4-yl)cyclohexyl]biphenyl-4-sulfonamide]
